The values below come from ChEMBL document CHEMBL1287781, “Novel lipophilic 7H-pyrido[1,2,3-de]-1,4-benzoxazine-6-carboxylic acid derivatives as potential antitumor agents: improved synthesis and in vitro evaluation” (Bioorg Med Chem, 2010).

Broadly, the IC50 is the concentration that inhibits the measured activity by half. A high value points to lower potency.

Each structure is given as a SMILES string. The source made the active and inactive calls. The calls are words filed in the database; no cut-off is given here.

A short description of data set [1]: Chemical stability of the compound in phosphate buffer at pH 7.4 after 7 days. It counts as physicochemical. Conditions: read-out: Stability.
Data set [2] can be described thus: Anticancer activity against human U373MG after 5 days by MTT assay. It counts as functional, cell-based, U-373MG ATCC. Conditions: U373 MG, 120 h. On the technique in general: Tetrazolium dyes change colour on reduction, which living cells bring about.
Data set [3] concerns A549. The data set is described as follows: Anticancer activity against human A549 after 5 days by MTT assay. To be noted: A549, 120 h. It is filed as functional, cell-based.
Data set [4] deals with PC-3. The experiment in a line: Anticancer activity against human PC3 after 5 days by MTT assay. It is filed as functional, cell-based. To be noted: PC-3, 120 h.
The subject of data set [5] is LoVo. The data set is described as follows: Anticancer activity against human LoVo cells after 5 days by MTT assay. It is filed as functional, cell-based. Conditions: 120 h.
Data set [6] deals with MCF7. The experiment in a line: Anticancer activity against human MCF7 after 5 days by MTT assay. Conditions: MCF7, 120 h. It is filed as functional, cell-based.
The nature of data set [7]: Toxicity in ip dosed B6D2F1 mouse after 28 days. It is filed as organism-based. Conditions: in vivo.
The test system of data set [8] is U-373MG ATCC. The data set is described as follows: Antimigratory activity against human U373MG at 0.1 uM after 6 days by phase-contrast microscopy. It counts as functional, cell-based.
In data set [9] the test system is U-373MG ATCC. The experiment in a line: Antimigratory activity against human U373MG at 1 uM after 6 days by phase-contrast microscopy. It counts as functional, cell-based.
Data set [10] concerns U-373MG ATCC. The experiment in a line: Anticancer activity against human U373MG after 3 to 5 days by MTT assay. It is filed as functional, cell-based.
The subject of data set [11] is A549. The experiment in a line: Anticancer activity against human A549 after 3 to 5 days by MTT assay. It is filed as functional, cell-based.
Data set [12] deals with PC-3. The data set is described as follows: Anticancer activity against human PC3 after 3 to 5 days by MTT assay. It counts as functional, cell-based.
In data set [13] the test system is LoVo. The experiment in a line: Anticancer activity against human LoVo cells after 3 to 5 days by MTT assay. It is filed as functional, cell-based.
For data set [14], the system named is MCF7. The experiment in a line: Anticancer activity against human MCF7 after 3 to 5 days by MTT assay. It counts as functional, cell-based.
Data set [15] deals with A549. The data set is described as follows: Anticancer activity against human A549 by sulforhodamine B assay. It counts as functional, cell-based.
Data set [16] has as its system MCF7. The data set is described as follows: Anticancer activity against human MCF7 by sulforhodamine B assay. It is filed as functional, cell-based. Background: Sulforhodamine B stains cellular protein and so reports cell mass.

`CCCCCCNC(=O)c1cn2c3c(c(N4CCN(C)CC4)c(F)cc3c1=O)OC[C@@H]2C`: in [1], the remaining at 168 h stood at 100%. The IC50 in data set [2] stood at 4 µM; in data set [3] it was 6 µM; in data set [4], 12 µM; in [5] it was 5 µM; in [6], 16 µM.
Take `CCCCCCCCCCCCNC(=O)c1cn2c3c(c(N4CCN(C)CC4)c(F)cc3c1=O)OC[C@@H]2C`: the 50% inhibitory concentration (IC50) in [2] came out at 5 µM; in data set [3], 5 µM; in data set [4], 5 µM; in [5], 3 µM; in data set [6] it was 10 µM.
As to `CCCCCCCNC(=O)c1cn2c3c(c(N4CCN(C)CC4)c(F)cc3c1=O)OC[C@@H]2C`, the IC50 was 3 µM in [2]; 3 µM in data set [3]; 4 µM in data set [4]; 1 µM in [5]; 5 µM in [6].
Turning to `CCCCCCCC(=O)OCOC(=O)c1cn2c3c(c(N4CCN(C)CC4)c(F)cc3c1=O)OC[C@@H]2C`, the remaining at 168 h in data set [1] is above 90%. The IC50 in data set [2] worked out at 243 µM; in data set [3] it was 289 µM; in data set [4], 230 µM; in [5], 209 µM; in data set [6], 238 µM. In addition, the MTD at 672 h in [7] is above 80 mg/kg.
For `CCCCCCCCCCCCCCCCCC(=O)OCOC(=O)c1cn2c3c(c(N4CCN(C)CC4)c(F)cc3c1=O)OC[C@@H]2C`, the IC50 in data set [2] amounted to 0.9 µM; in data set [3], 593 µM; in [4] it was 100 µM; in data set [5], 4 µM; in [6] it was 12 µM. For the same compound, the result in [8] and in data set [9] was inactive.
For `CCCCCCCCCCCCCCCNC(=O)c1cn2c3c(c(N4CCN(C)CC4)c(F)cc3c1=O)OC[C@@H]2C`, the IC50 in data set [2] came out at 7 µM; in data set [3], 8 µM; in data set [4], 5 µM; in data set [5], 6 µM; in data set [6] it was 15 µM.
Consider `CCCCCCCCCC(=O)OCOC(=O)c1cn2c3c(c(N4CCN(C)CC4)c(F)cc3c1=O)OC[C@@H]2C`, for which the IC50 in [2], in data set [3], in [4], in data set [5] and in data set [6] was above 1000 µM in each case. In [7], this compound had an MTD at 672 h above 80 mg/kg.
For `CCCCCCCCCCCCCC(=O)OCOC(=O)c1cn2c3c(c(N4CCN(C)CC4)c(F)cc3c1=O)OC[C@@H]2C`, the IC50 is 8 µM in data set [2]; 617 µM in [3]; 71 µM in [4]; 21 µM in [5]; 6 µM in [6].
With `CCCCCCCCNC(=O)c1cn2c3c(c(N4CCN(C)CC4)c(F)cc3c1=O)OC[C@@H]2C`, in data set [1], the remaining at 168 h is 100%. Further, the IC50 in [2] worked out at 2.3 µM; in data set [3] it was 2.2 µM; in [4], 1.5 µM; in [5] it was 0.8 µM; in data set [6], 2.1 µM. The Activity result in data set [10], in [11], in [12], in data set [13] and in [14] was “Dose-dependent effect” throughout.
The compound `CO/N=C(/CN1CCN(c2cc3c(cc2F)c(=O)c(C(=O)O)cn3C2CC2)CC1)c1ccc(Cl)s1` had an IC50 in [6] of 2.9 µM.
Take `C[C@H]1COc2c(N3CCN(C)CC3)c(F)cc3c(=O)c(-c4nc5ccc([N+](=O)[O-])cc5s4)cn1c23`: the IC50 in data set [15] and in [16] was above 10 µM each time.
With `CCCC(=O)OCOC(=O)c1cn2c3c(c(N4CCN(C)CC4)c(F)cc3c1=O)OC[C@@H]2C`, the remaining at 168 h in data set [1] is above 92%. The IC50 in data set [2] was determined as 40 µM; in data set [3] it was 3 µM; in [4] it was 31 µM; in [5], 5 µM; in data set [6], 35 µM.
On to `CCCCCCCCCCCCCCNC(=O)c1cn2c3c(c(N4CCN(C)CC4)c(F)cc3c1=O)OC[C@@H]2C`, for which the remaining at 168 h in [1] was above 98%. The IC50 came to 3 µM in data set [2]; 5 µM in [3]; 3 µM in [4]; 3 µM in data set [5]; 5 µM in data set [6].
With `CCCCNC(=O)c1cn2c3c(c(N4CCN(C)CC4)c(F)cc3c1=O)OC[C@@H]2C`, the remaining at 168 h in data set [1] is above 97%. Besides, the IC50 in [2] was 113 µM; in data set [3] it was 46 µM; in [4], 30 µM; in [5], 24 µM; in data set [6] it was 55 µM.
`CCCCCCCCCCCCCCCC(=O)OCOC(=O)c1cn2c3c(c(N4CCN(C)CC4)c(F)cc3c1=O)OC[C@@H]2C`: the remaining at 168 h in [1] is above 93%. In addition, the IC50 in data set [2] is 4 µM; in [3] it was 46 µM; in data set [4] it was 56 µM; in data set [5] it was 6 µM; in [6] it was 8 µM.
Regarding `C[C@H]1COc2c(N3CCN(C)CC3)c(F)cc3c(=O)c(C(=O)O)cn1c23` [LEVOFLOXACIN], the 50% inhibitory concentration (IC50) in data set [2] turned out to be 188 µM; in data set [3], 70 µM; in [4], 238 µM; in data set [5], 67 µM; in [6] it was 622 µM. In addition, the Activity result in [10], in [11], in [12], in data set [13] and in data set [14] was “Dose-dependent effect” each time.
In the case of `CCCCCCCCCCCC(=O)OCOC(=O)c1cn2c3c(c(N4CCN(C)CC4)c(F)cc3c1=O)OC[C@@H]2C`, the remaining at 168 h in [1] is above 91%. For the same compound, the IC50 in data set [2] was 0.2 µM; in data set [3], 65 µM; in data set [4], 86 µM; in [5] it was 0.3 µM; in data set [6], 0.3 µM. The outcome in data set [8] and in data set [9] was inactive.
Take `CCCCCCCCCCNC(=O)c1cn2c3c(c(N4CCN(C)CC4)c(F)cc3c1=O)OC[C@@H]2C`: the IC50 in data set [2] is 3 µM; in [3] it was 3 µM; in [4], 3 µM; in data set [5], 3 µM; in data set [6], 5 µM.
Turning to `CCCCCC(=O)OCOC(=O)c1cn2c3c(c(N4CCN(C)CC4)c(F)cc3c1=O)OC[C@@H]2C`, the IC50 in data set [2] turned out to be 199 µM; in data set [3], 235 µM; in data set [4] it was 207 µM; in [5], 162 µM; in [6], 183 µM. The compound also displayed an MTD at 672 h in data set [7] above 80 mg/kg.
